# Patent publication US20130310326A1, “Histatin for Corneal Wound Healing and Ocular Surface Disease” (RAPID PATHOGEN SCREENING, INC., priority 2012, published 2013)
# Test system: corneal wounds (epithelial defects in the right eye)
# Test: Corneal wound healing in rabbits (epithelial defect, fluorescein staining, computerized area determination)
# Format: in vivo, New Zealand White rabbits
# Details: for Percentage of 1 hour post wound size: approximate, without standard deviation
# Experimental: The study disclosed herein evaluates and quantifies the wound healing effects of histatins on the ocular surface of New Zealand White rabbits.
# Epithelial defects are created in the right eye (oculus dexter, OD) of 12 New Zealand White rabbits. Due to animal regulations, bilateral wounding is not permitted. After the epithelial defects are made, the rabbits are randomized into treatment groups. Two (2) groups are treated with different cyclized histatin concentrations: 0.1 μg/ml and 10 μg/ml dissolved into an ophthalmic artificial tear preparation and delivered to the rabbits as an eye drop three times daily. Histatins known in the art, including, but not limited to, amino acid SEQ. ID. NOs. 1 through 33, which include Hst-1 (SEQ. ID. NO. 4), Hst-2 (SEQ. ID. NO. 5), Hst-3 (SEQ. ID. NO. 6), Hst-5 (SEQ. ID. NO. 30), and sortase cyclized histatin (SEQ. ID. NO. 33), may be used in these studies or in treatment protocols. […] This control group should receive the same vehicle identical to the other two groups but without histatin. An over-the-counter artificial tear preferably serves as the vehicle. The initial study included four (4) animals/group in three (3) groups, for a total of twelve rabbits.
# Each rabbit group is preferably given moxifloxicin treatment to prevent infection.
# The corneal wounds are then evaluated daily for the corneal wound healing abilities of histatin via fluorescein staining, fluorescent slit lamp biomicrophotography and computerized area determination. Evaluators are masked to the therapeutic treatment given to the rabbits. After healing, two (2) animals from each group are euthanized, and the corneas collected for histological processing (H&E staining with subsequent evaluation by veterinary histopathologist). The decision to perform histopathologic analysis after tissue procurement is made only if there is proven difference in healing between the different treatment groups and the controls. At study termination (study preferably continues for seven days), the remaining animals are euthanized.
# The histatin used in this study was cyclized histatin 1. The histatin 1 used was a sortase cyclized histatin with amino acid SEQ. ID. NO.
substance,measurement,setting,value
cyclo(DNLPETGGDSHEKRHHGYRRKFHEKHHSHREFPFYGDYGSNYLY) [cyclized histatin 1],corneal wound size,"0.1 μg/ml eye drop three times daily, 0 hours post wound",112.7 ± 37.8 mm^2
same,corneal wound size,"0.1 μg/ml eye drop three times daily, 6 hours post wound",96.2 ± 13.6 mm^2
same,corneal wound size,"0.1 μg/ml eye drop three times daily, 24 hours post wound",77.5 ± 25.0 mm^2
same,corneal wound size,"0.1 μg/ml eye drop three times daily, 30 hours post wound",48.8 ± 8.0 mm^2
same,corneal wound size,"0.1 μg/ml eye drop three times daily, 48 hours post wound",2.7 ± 3.1 mm^2
same,corneal wound size,"0.1 μg/ml eye drop three times daily, 54 hours post wound",0.00 ± 0.00 mm^2
same,corneal wound size,"0.1 μg/ml eye drop three times daily, 72 hours post wound",0.00 ± 0.00 mm^2
same,healing activity of corneal wounds versus control,"0.1 μg/ml or 10 μg/ml versus vehicle control, rabbits",significant dose dependent accelerated healing activity
same,Percentage of 1 hour post wound size,"0.1 ug/ml, 0 hours post wound",100%
same,Percentage of 1 hour post wound size,"0.1 ug/ml, 6 hours post wound",85%
same,Percentage of 1 hour post wound size,"0.1 ug/ml, 24 hours post wound",69%
same,Percentage of 1 hour post wound size,"0.1 ug/ml, 30 hours post wound",43%
same,Percentage of 1 hour post wound size,"0.1 ug/ml, 48 hours post wound",2%
same,Percentage of 1 hour post wound size,"0.1 ug/ml, 54 hours post wound",0%
same,Percentage of 1 hour post wound size,"0.1 ug/ml, 72 hours post wound",0%
same,corneal wound size,"10 μg/ml eye drop three times daily, 0 hours post wound",88.4 ± 31.6 mm^2
same,corneal wound size,"10 μg/ml eye drop three times daily, 6 hours post wound",74.0 ± 14.7 mm^2
same,corneal wound size,"10 μg/ml eye drop three times daily, 24 hours post wound",51.4 ± 9.3 mm^2
same,corneal wound size,"10 μg/ml eye drop three times daily, 30 hours post wound",37.7 ± 9.4 mm^2
same,corneal wound size,"10 μg/ml eye drop three times daily, 48 hours post wound",0.00 ± 0.07 mm^2
same,corneal wound size,"10 μg/ml eye drop three times daily, 54 hours post wound",0.00 ± 0.00 mm^2
same,corneal wound size,"10 μg/ml eye drop three times daily, 72 hours post wound",0.00 ± 0.00 mm^2
same,Percentage of 1 hour post wound size,"10 ug/ml, 0 hours post wound",100%
same,Percentage of 1 hour post wound size,"10 ug/ml, 6 hours post wound",84%
same,Percentage of 1 hour post wound size,"10 ug/ml, 24 hours post wound",58%
same,Percentage of 1 hour post wound size,"10 ug/ml, 30 hours post wound",43%
same,Percentage of 1 hour post wound size,"10 ug/ml, 48 hours post wound",0%
same,Percentage of 1 hour post wound size,"10 ug/ml, 54 hours post wound",0%
same,Percentage of 1 hour post wound size,"10 ug/ml, 72 hours post wound",0%
